Source: patent US8846656B2, “Tetrahydropyrido-pyridine and tetrahydropyrido-pyrimidine compounds and use thereof as C5a receptor modulators” (Novartis AG, priority 2011, dated 2014)
Read-outs that look alike come from different tables or passages of the source.

Columns and labels:
human C5aR = human C5aR (Homo sapiens (Human), UniProt P21730); assay: FLIPR assay: inhibition of C5a-mediated calcium mobilization; format: cell-based; details: stable cell line over expressing human C5aR & Gα15, human C5a at EC50 (0.1-0.25 nM)
Method in brief: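 Stable cell line overexpressing human C5aR with Gα15, measured on FLIPR Tetra. Cells loaded 1 h at 37° C with calcium 5 dye and 2.5 mM probenecid in HBSS/20 mM HEPES/0.1% BSA. Compounds preincubated 30 minutes at room temperature in 1% DMSO before C5a.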

CD11b = assay: Human whole blood CD11b up-regulation assay; format: cell-based; details: 2 nM human C5a, CD15+ granulocytes, read-out: hCD11b IC50
Method in brief: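 Heparinized human whole blood (used within 2 h) preincubated 10 min at room temperature with compound in 1% DMSO, then stimulated with 2 nM human C5a for 15 min. After anti-CD15/anti-CD11b staining on ice and RBC lysis, CD11b median fluorescence on 10,000 CD15+ granulocytes measured by flow cytometry.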

Sequence of human C5aR (P21730 whole entry): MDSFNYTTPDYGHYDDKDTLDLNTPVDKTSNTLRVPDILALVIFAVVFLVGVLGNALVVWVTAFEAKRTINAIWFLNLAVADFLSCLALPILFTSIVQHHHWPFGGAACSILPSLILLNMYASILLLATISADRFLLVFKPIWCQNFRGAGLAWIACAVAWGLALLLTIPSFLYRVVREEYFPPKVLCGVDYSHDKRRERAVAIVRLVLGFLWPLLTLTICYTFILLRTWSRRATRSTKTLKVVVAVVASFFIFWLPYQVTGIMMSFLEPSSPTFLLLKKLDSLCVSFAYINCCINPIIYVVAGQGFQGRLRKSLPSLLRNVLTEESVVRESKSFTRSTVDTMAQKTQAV

Structure (SMILES) | IC50 (human C5aR) [nM] | IC50 (CD11b; Homo sapiens) [nM] | IC50 (CD11b) [nM]
CO[C@@H]1CCN(c2nc(-c3c(C)ccc4[nH]nc(C)c34)nc3c2CN(c2cc(C(C)C)ccc2C)CC3)[C@H](C)C1 [Example 21-Q, (+)-2-(3,5-dimethyl-1H-indazol-4-yl)-6-(5-isopropyl-2-methylphenyl)-4-((2R,4R)-4-methoxy-2-methylpiperidijn-1-yl)-5,6,7,8-tetrahydropyrido[4,3-d]pyrimidine] | 1 | 7 | –
CO[C@@H]1CCN(c2nc(-c3c(C)ccc4[nH]nc(C)c34)nc3c2CN(c2cc(C4(C)COC4)ccc2C)CC3)[C@H](C)C1 [Example 21-R, 2-(3,5-dimethyl-1H-indazol-4-yl)-4-((2R,4R)-4-methoxy-2-methylpiperidin-1-yl)-6-(2-methyl-5-(3-methyloxetan-3-yl)phenyl)-5,6,7,8-tetrahydropyrido[4,3-d]pyrimidine] | 1 | 15 | –
CO[C@@H]1CCN(c2nc(-c3c(C)ccnc3C)nc3c2CN(c2cc(C(C)C)ccc2C)CC3)[C@H](C)C1 [Example 21-S, 2-(2,4-dimethylpyridin-3-yl)-6-(5-isopropyl-2-methylphenyl)-4-((2R,4R)-4-methoxy-2-methylpiperidin-1-yl)-5,6,7,8-tetrahydropyrido[4,3-d]pyrimidine] | 30 | 180 | –
CO[C@@H]1CCN(c2nc(-c3c(C(F)(F)F)cnc4[nH]ccc34)nc3c2CN(c2cc(C(C)C)ccc2C)CC3)[C@H](C)C1 [Example 22-C, 6-(5-Isopropyl-2-methylphenyl)-4-((2R,4R)-4-methoxy-2-methylpiperidin-1-yl)-2-(5-(trifluoromethyl)-1H-pyrrolo[2,3-b]pyridin-4-yl)-5,6,7,8-tetrahydropyrido[4,3-d]pyrimidine] | 2 | 17 | –
CO[C@@H]1CCN(c2nc(-c3c(C)cccc3C)nc3c2CN(c2cc(C(C)C)nn2C)CC3)[C@H](C)C1 [Example 23-C, 2-(2,6-dimethylphenyl)-6-(3-isopropyl-1-methyl-1H-pyrazol-5-yl)-4-((2R,4R)-4-methoxy-2-methylpiperidin-1-yl)-5,6,7,8-tetrahydropyrido[4,3-d]pyrimidine] | 40 | 95 | –
CO[C@@H]1CCN(c2nc(-c3c(C)cccc3C)nc3c2CN(c2cc(C4CC4)nn2C)CC3)[C@H](C)C1 [Example 23-D, 6-(3-cyclopropyl-1-methyl-1H-pyrazol-5-yl)-2-(2,6-dimethylphenyl)-4-((2R,4R)-4-methoxy-2-methylpiperidin-1-yl)-5,6,7,8-tetrahydropyrido[4,3-d]pyrimidine] | 8 | 18 | –
CO[C@H]1CCN(c2nc(-c3c(C(C)C)ccc4[nH]ncc34)nc3c2CN(c2cc(C(C)C)nn2C)CC3)CC1(C)C [Example 23-F, (S)-6-(3-isopropyl-1-methyl-1H-pyrazol-5-yl)-2-(5-isopropyl-1H-indazol-4-yl)-4-(4-methoxy-3,3-dimethylpiperidin-1-yl)-5,6,7,8-tetrahydropyrido[4,3-d]pyrimidine] | 5 | 28 | –
CO[C@@H]1CCN(c2nc(-c3c(C)ccc4[nH]nc(C)c34)nc3c2CN(c2cc(C(C)C)nn2C)CC3)[C@H](C)C1 [Example 23-G, 2-(3,5-dimethyl-1H-indazol-4-yl)-6-(3-isopropyl-1-methyl-1H-pyrazol-5-yl)-4-((2R,4R)-4-methoxy-2-methylpiperidin-1-yl)-5,6,7,8-tetrahydropyrido[4,3-d]pyrimidine] | 2 | 25 | –
CO[C@@H]1CCN(c2nc(-c3c(C)ccc4[nH]nc(C)c34)nc3c2CN(c2cc(C4CC4)nn2C)CC3)[C@H](C)C1 [Example 23-H, 6-(3-cyclopropyl-1-methyl-1H-pyrazol-5-yl)-2-(3,5-dimethyl-1H-indazol-4-yl)-4-((2R,4R)-4-methoxy-2-methylpiperidin-1-yl)-5,6,7,8-tetrahydropyrido[4,3-d]pyrimidine] | 1 | 24 | –
CO[C@@H]1CCN(c2nc(-c3c(C)ccc4[nH]nc(C)c34)nc3c2CN(c2cc(C4CC4)nn2C)CC3)CC1(C)C [Example 23-I, (R)-6-(3-cyclopropyl-1-methyl-1H-pyrazol-5-yl)-2-(3,5-dimethyl-1H-indazol-4-yl)-4-(4-methoxy-3,3-dimethylpiperidin-1-yl)-5,6,7,8-tetrahydropyrido[4,3-d]pyrimidine] | 0.5 | 22 | –
CO[C@@H]1CCN(c2nc(-c3c(C)ccc4[nH]nc(C)c34)nc3c2CN(c2cc(C(F)(F)F)nn2C)CC3)[C@H](C)C1 [Example 23-J, 2-(3,5-dimethyl-1H-indazol-4-yl)-4-((2R,4R)-4-methoxy-2-methylpiperidin-1-yl)-6-(1-methyl-3-(trifluoromethyl)-1H-pyrazol-5-yl)-5,6,7,8-tetrahydropyrido[4,3-d]pyrimidine] | 8 | 38 | –
CO[C@H]1CCN(c2nc(-c3c(C)ccc4[nH]nc(C)c34)nc3c2CN(c2cc(C(F)(F)F)nn2C)CC3)CC1(C)C [Example 23-K, (S)-2-(3,5-dimethyl-1H-indazol-4-yl)-4-(4-methoxy-3,3-dimethylpiperidin-1-yl)-6-(1-methyl-3-(trifluoromethyl)-1H-pyrazol-5-yl)-5,6,7,8-tetrahydropyrido[4,3-d]pyrimidine] | 64 | 11 | –
Cc1c[nH]c2cccc(-c3nc4c(c(N5CCN(CC(N)=O)[C@H](C)C5)n3)CN(c3ccccc3C(F)(F)F)CC4)c12 [Example 24-D, (R)-2-(2-methyl-4-(2-(3-methyl-1H-indol-4-yl)-6-(2-(trifluoromethyl)phenyl)-5,6,7,8 tetrahydropyrido[4,3-d]pyrimidin-4-yl)piperazin-1-yl)acetamide] | 91 | 1500 | –
Cc1ccc(F)cc1N1CCc2nc(-c3cccc4[nH]cc(C)c34)nc(N3CCN(CC(N)=O)[C@H](C)C3)c2C1 [Example 24-E, (R)-2-(4-(6-(5-fluoro-2-methylphenyl)-2-(3-methyl-1H-indol-4-yl)-5,6,7,8-tetrahydropyrido[4,3-d]pyrimidin-4-yl)-2-methylpiperazin-1-yl)acetamide] | 75 | 385 | –
Cc1ccc(C(F)(F)F)cc1N1CCc2nc(-c3cccc4[nH]cc(C)c34)nc(N3CCN(CC(N)=O)[C@H](C)C3)c2C1 [Example 24-G, (R)-2-(2-methyl-4-(2-(3-methyl-1H-indol-4-yl)-6-(2-methyl-5-(trifluoromethyl)phenyl)-5,6,7,8-tetrahydropyrido[4,3-d]pyrimidin-4-yl)piperazin-1-yl)acetamide] | 7 | 670 | –
Cc1ccc(C(C)C)cc1N1CCc2nc(-c3cccc4[nH]cc(C)c34)nc(N3CCN(CC(N)=O)[C@H](C)C3)c2C1 [Example 24-J, (R)-2-(4-(6-(5-isopropyl-2-methylphenyl)-2-(3-methyl-1H-indol-4-yl)-5,6,7,8-tetrahydropyrido[4,3-d]pyrimidin-4-yl)-2-methylpiperazin-1-yl)acetamide] | 8 | 423 | –
Cc1ccc(C(C)C)cc1N1CCc2nc(-c3c(C)ccc4[nH]ncc34)nc(N3CCN(CC(N)=O)C[C@H]3C)c2C1 [Example 24-L, (R)-2-(4-(6-(5-isopropyl-2-methylphenyl)-2-(5-methyl-1H-indazol-4-yl)-5,6,7,8-tetrahydropyrido[4,3-d]pyrimidin-4-yl)-3-methylpiperazin-1-yl)acetamide] | 6 | 391 | –
CC(=O)N1CCN(c2nc(-c3cccc4[nH]cc(C)c34)nc3c2CN(c2cc(C4CC4)ccc2C)CC3)[C@H](C)C1 [Example 25-C, (R)-1-(4-(6-(5-cyclopropyl-2-methylphenyl)-2-(3-methyl-1H-indol-4-yl)-5,6,7,8-tetrahydropyrido[4,3-d]pyrimidin-4-yl)-3-methylpiperazin-1-yl)ethanone] | 5 | 183 | –
CC(=O)N1CCN(c2nc(-c3cccc4[nH]cc(C)c34)nc3c2CN(c2cc(C4(C)COC4)ccc2C)CC3)[C@H](C)C1 [Example 26-B, (R)-1-(3-Methyl-4-(2-(3-methyl-1H-indol-4-yl)-6-(2-methyl-5-(3-methyloxetan-3-yl)phenyl)-5,6,7,8-tetrahydropyrido[4,3-d]pyrimidin-4-yl)piperazin-1-yl)ethanone] | 20 | 907 | –
Cc1ccc(C(C)C)cc1N1CCc2nc(-c3c(C)cccc3C)nc(N3C[C@H](C)N(CC(N)=O)C[C@H]3C)c2C1 [Example 28-B] | 3 | – | 107
Cc1ccc(C(C)C)cc1N1CCc2nc(-c3cccc4[nH]cc(C)c34)nc(N3CCN(S(C)(=O)=O)[C@H](C)C3)c2C1 [Example 29, (R)-6-(5-isopropyl-2-methylphenyl)-2-(3-methyl-1H-indol-4-yl)-4-(3-methyl-4-(methylsulfonyl)piperazin-1-yl)-5,6,7,8-tetrahydropyrido[4,3-d]pyrimidine] | 2 | 300 | –
Cc1ccc(C(C)C)cc1N1CCc2nc(-c3cccc4[nH]cc(C)c34)nc(N3CCN(C4COC4)[C@H](C)C3)c2C1 [Example 30-A, (R)-6-(5-Isopropyl-2-methylphenyl)-2-(3-methyl-1H-indol-4-yl)-4-(3-methyl-4-(oxetan-3-yl)piperazin-1-yl)-5,6,7,8-tetrahydropyrido[4,3-d]pyrimidine] | 16 | 5780 | –
COc1nc(-c2c(C)ccc3[nH]nc(C)c23)nc2c1CN(c1cc(C3(C)COC3)ccc1C)CC2 [Example 31-H, 2-(3,5-dimethyl-1H-indazol-4-yl)-4-methoxy-6-(2-methyl-5-(3-methyloxetan-3-yl)phenyl)-5,6,7,8-tetrahydropyrido[4,3-d]pyrimidine] | 77 | 72 | –
